Experimental data as given in PubChem BioAssay (NCI).
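Five compound concentrations were applied to cells in 96-well plates for 48 hours; endpoints were derived by simple linear interpolation of the resulting dose-response curve. TGI: total growth inhibition.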

Legend:
Assay in all cases: NCI tumour cell line growth inhibition, 48 h
786-0 renal = test system: 786-0 renal
A498 renal = test system: A498 renal
A549 NSCLC = test system: A549 NSCLC
ACHN renal = test system: ACHN renal
CAKI-1 renal = test system: CAKI-1 renal
CCRF-CEM leukemia = test system: CCRF-CEM leukemia
COLO 205 colon = test system: COLO 205 colon
DU-145 prostate = test system: DU-145 prostate
EKVX NSCLC = test system: EKVX NSCLC
HCC-2998 colon = test system: HCC-2998 colon
HCT-116 colon = test system: HCT-116 colon
HCT-15 colon = test system: HCT-15 colon
HL-60(TB) leukemia = test system: HL-60(TB) leukemia
HOP-62 NSCLC = test system: HOP-62 NSCLC
HOP-92 NSCLC = test system: HOP-92 NSCLC
HS 578T breast = test system: HS 578T breast
HT29 colon = test system: HT29 colon
IGROV1 ovarian = test system: IGROV1 ovarian
K-562 leukemia = test system: K-562 leukemia
KM12 colon = test system: KM12 colon
LOX IMVI melanoma = test system: LOX IMVI melanoma
M14 melanoma = test system: M14 melanoma
MALME-3M melanoma = test system: MALME-3M melanoma
MCF7 breast = test system: MCF7 breast
MDA-MB-231 breast = test system: MDA-MB-231 breast
MDA-MB-435 = test system: MDA-MB-435
MDA-N = test system: MDA-N
NCI-H226 lung = test system: NCI-H226 lung
NCI-H23 lung = test system: NCI-H23 lung
NCI-H460 lung = test system: NCI-H460 lung
NCI-H522 lung = test system: NCI-H522 lung
NCI/ADR-RES ovarian = test system: NCI/ADR-RES ovarian
OVCAR-3 ovarian = test system: OVCAR-3 ovarian
OVCAR-4 ovarian = test system: OVCAR-4 ovarian
OVCAR-5 ovarian = test system: OVCAR-5 ovarian
OVCAR-8 ovarian = test system: OVCAR-8 ovarian
PC-3 prostate = test system: PC-3 prostate
RPMI-8226 leukemia = test system: RPMI-8226 leukemia
RXF 393 renal = test system: RXF 393 renal
SF-268 CNS = test system: SF-268 CNS
SF-295 CNS = test system: SF-295 CNS
SF-539 CNS = test system: SF-539 CNS
SK-MEL-2 melanoma = test system: SK-MEL-2 melanoma
SK-MEL-28 melanoma = test system: SK-MEL-28 melanoma
SK-MEL-5 melanoma = test system: SK-MEL-5 melanoma
SK-OV-3 ovarian = test system: SK-OV-3 ovarian
SN12C renal = test system: SN12C renal
SNB-19 CNS = test system: SNB-19 CNS
SNB-75 CNS = test system: SNB-75 CNS
SR leukemia = test system: SR leukemia
SW-620 colon = test system: SW-620 colon
T-47D breast = test system: T-47D breast
TK-10 renal = test system: TK-10 renal
U251 CNS = test system: U251 CNS
UACC-257 melanoma = test system: UACC-257 melanoma
UACC-62 melanoma = test system: UACC-62 melanoma
MOLT-4 leukemia = test system: MOLT-4 leukemia
UO-31 renal = test system: UO-31 renal

CC1(c2ccccc2)N=C(C(N)=O)c2[nH]cnc2N1 (centres undefined)
TGI (786-0 renal): > 100 µM
TGI (A498 renal): > 100 µM
TGI (A549 NSCLC): > 100 µM
TGI (ACHN renal): > 100 µM
TGI (CAKI-1 renal): > 100 µM
TGI (CCRF-CEM leukemia): > 100 µM
TGI (COLO 205 colon): > 100 µM
TGI (DU-145 prostate): > 100 µM
TGI (EKVX NSCLC): > 100 µM
TGI (HCC-2998 colon): > 100 µM
TGI (HCT-116 colon): > 100 µM
TGI (HCT-15 colon): > 100 µM
TGI (HL-60(TB) leukemia): > 100 µM
TGI (HOP-62 NSCLC): > 100 µM
TGI (HOP-92 NSCLC): > 100 µM
TGI (HS 578T breast): > 100 µM
TGI (HT29 colon): > 100 µM
TGI (IGROV1 ovarian): > 100 µM
TGI (K-562 leukemia): > 100 µM
TGI (KM12 colon): > 100 µM
TGI (LOX IMVI melanoma): > 100 µM
TGI (M14 melanoma): > 100 µM
TGI (MALME-3M melanoma): > 100 µM
TGI (MCF7 breast): > 100 µM
TGI (MDA-MB-231 breast): > 100 µM
TGI (MDA-MB-435): > 100 µM
TGI (MDA-N): > 100 µM
TGI (NCI-H226 lung): > 100 µM
TGI (NCI-H23 lung): > 100 µM
TGI (NCI-H460 lung): > 100 µM
TGI (NCI-H522 lung): > 100 µM
TGI (NCI/ADR-RES ovarian): > 100 µM
TGI (OVCAR-3 ovarian): > 100 µM
TGI (OVCAR-4 ovarian): > 100 µM
TGI (OVCAR-5 ovarian): > 100 µM
TGI (OVCAR-8 ovarian): > 100 µM
TGI (PC-3 prostate): > 100 µM
TGI (RPMI-8226 leukemia): > 100 µM
TGI (RXF 393 renal): > 100 µM
TGI (SF-268 CNS): > 100 µM
TGI (SF-295 CNS): > 100 µM
TGI (SF-539 CNS): > 100 µM
TGI (SK-MEL-2 melanoma): > 100 µM
TGI (SK-MEL-28 melanoma): > 100 µM
TGI (SK-MEL-5 melanoma): > 100 µM
TGI (SK-OV-3 ovarian): > 100 µM
TGI (SN12C renal): > 100 µM
TGI (SNB-19 CNS): > 100 µM
TGI (SNB-75 CNS): > 100 µM
TGI (SR leukemia): > 100 µM
TGI (SW-620 colon): > 100 µM
TGI (T-47D breast): > 100 µM
TGI (TK-10 renal): > 100 µM
TGI (U251 CNS): > 100 µM
TGI (UACC-257 melanoma): > 100 µM
TGI (UACC-62 melanoma): > 100 µM

CCCCCCCCCc1c(Cl)nc(Cl)nc1Cl
TGI (786-0 renal): 27.8 µM
TGI (A498 renal): 34 µM
TGI (A549 NSCLC): 37.6 µM
TGI (ACHN renal): 33.7 µM
TGI (CAKI-1 renal): 12.1 µM
TGI (CCRF-CEM leukemia): 5.79 µM
TGI (COLO 205 colon): 37.7 µM
TGI (DU-145 prostate): 31.2 µM
TGI (EKVX NSCLC): 38.2 µM
TGI (HCC-2998 colon): 8.89 µM
TGI (HCT-116 colon): 27.9 µM
TGI (HCT-15 colon): 27.5 µM
TGI (HL-60(TB) leukemia): 18.2 µM
TGI (HOP-62 NSCLC): 37.5 µM
TGI (HOP-92 NSCLC): 29.4 µM
TGI (HS 578T breast): 58.3 µM
TGI (HT29 colon): 34 µM
TGI (IGROV1 ovarian): 26.6 µM
TGI (K-562 leukemia): 19.4 µM
TGI (KM12 colon): > 65 µM
TGI (LOX IMVI melanoma): 4.34 µM
TGI (M14 melanoma): 11 µM
TGI (MALME-3M melanoma): 25.6 µM
TGI (MCF7 breast): 36.5 µM
TGI (MDA-MB-231 breast): 25 µM
TGI (MDA-MB-435): 26.7 µM
TGI (MDA-N): 32.2 µM
TGI (MOLT-4 leukemia): 5.18 µM
TGI (NCI-H226 lung): 20.1 µM
TGI (NCI-H23 lung): 25.7 µM
TGI (NCI-H460 lung): 37.4 µM
TGI (NCI-H522 lung): 12.1 µM
TGI (NCI/ADR-RES ovarian): 35.8 µM
TGI (OVCAR-3 ovarian): 32 µM
TGI (OVCAR-4 ovarian): 28.9 µM
TGI (OVCAR-5 ovarian): 35.9 µM
TGI (OVCAR-8 ovarian): 32.1 µM
TGI (PC-3 prostate): 29.8 µM
TGI (RPMI-8226 leukemia): 37.5 µM
TGI (RXF 393 renal): 32.3 µM
TGI (SF-268 CNS): 34.6 µM
TGI (SF-295 CNS): 39.3 µM
TGI (SF-539 CNS): 32.6 µM
TGI (SK-MEL-28 melanoma): 35.7 µM
TGI (SK-MEL-5 melanoma): 25.6 µM
TGI (SK-OV-3 ovarian): 36.4 µM
TGI (SN12C renal): 26.8 µM
TGI (SNB-19 CNS): 30.8 µM
TGI (SNB-75 CNS): 29.6 µM
TGI (SR leukemia): 7.93 µM
TGI (SW-620 colon): 26.3 µM
TGI (T-47D breast): 27 µM
TGI (TK-10 renal): 37.8 µM
TGI (U251 CNS): 33 µM
TGI (UACC-257 melanoma): 34.6 µM
TGI (UACC-62 melanoma): 38.8 µM
TGI (UO-31 renal): 32.2 µM

Cc1ccc(S(=O)(=O)NNC(=O)Nc2ccc(Cl)cc2)cc1
TGI (786-0 renal): > 100 µM
TGI (A498 renal): > 100 µM
TGI (A549 NSCLC): > 100 µM
TGI (ACHN renal): > 100 µM
TGI (CAKI-1 renal): > 100 µM
TGI (CCRF-CEM leukemia): > 100 µM
TGI (COLO 205 colon): > 100 µM
TGI (DU-145 prostate): > 100 µM
TGI (EKVX NSCLC): > 100 µM
TGI (HCC-2998 colon): > 100 µM
TGI (HCT-116 colon): > 100 µM
TGI (HCT-15 colon): > 100 µM
TGI (HL-60(TB) leukemia): > 100 µM
TGI (HOP-62 NSCLC): > 100 µM
TGI (HOP-92 NSCLC): > 100 µM
TGI (HS 578T breast): > 100 µM
TGI (HT29 colon): > 100 µM
TGI (IGROV1 ovarian): > 100 µM
TGI (K-562 leukemia): > 100 µM
TGI (KM12 colon): > 100 µM
TGI (M14 melanoma): > 100 µM
TGI (MALME-3M melanoma): > 100 µM
TGI (MCF7 breast): > 100 µM
TGI (MDA-MB-231 breast): > 100 µM
TGI (MDA-MB-435): > 100 µM
TGI (MDA-N): > 100 µM
TGI (MOLT-4 leukemia): > 100 µM
TGI (NCI-H226 lung): > 100 µM
TGI (NCI-H23 lung): > 100 µM
TGI (NCI-H460 lung): > 100 µM
TGI (NCI-H522 lung): > 100 µM
TGI (NCI/ADR-RES ovarian): > 100 µM
TGI (OVCAR-4 ovarian): > 100 µM
TGI (OVCAR-5 ovarian): > 100 µM
TGI (OVCAR-8 ovarian): > 100 µM
TGI (PC-3 prostate): > 100 µM
TGI (RPMI-8226 leukemia): > 100 µM
TGI (RXF 393 renal): > 100 µM
TGI (SF-268 CNS): > 100 µM
TGI (SF-295 CNS): > 100 µM
TGI (SF-539 CNS): > 100 µM
TGI (SK-MEL-2 melanoma): > 100 µM
TGI (SK-MEL-28 melanoma): > 100 µM
TGI (SK-MEL-5 melanoma): > 100 µM
TGI (SK-OV-3 ovarian): > 100 µM
TGI (SN12C renal): > 100 µM
TGI (SNB-19 CNS): > 100 µM
TGI (SNB-75 CNS): 99.7 µM
TGI (SR leukemia): > 100 µM
TGI (SW-620 colon): > 100 µM
TGI (T-47D breast): > 100 µM
TGI (TK-10 renal): > 100 µM
TGI (U251 CNS): > 100 µM
TGI (UACC-257 melanoma): > 100 µM
TGI (UACC-62 melanoma): > 100 µM
TGI (UO-31 renal): > 100 µM
